Results on 3 molecules are retold here after article PMC11566078, “Bactericidal activities and biochemical features of 16 antimicrobial peptides against bovine-mastitis causative pathogens” (Veterinary Research, 2024).

Common to all, as to type: cell-based
The test system of one experiment is Aeromonas hydrophila. Briefly: microbe, parasite or virus in culture. The conditions noted are these: Aeromonas hydrophila; Gram-negative field isolate from milk; BHI broth; WST colourimetric, 37 °C 6 h; triplicate; read-out: Minimal inhibitory concentration, Aeromonas hydrophila. How it is done:
(§1) All plates were cultivated aerobically.
(§2) Experiments were conducted in triplicate.

The next experiment relates to Streptococcus uberis. Briefly: microbe, parasite or virus in culture. As to conditions: Streptococcus uberis; field isolate from milk; BHI broth; WST colourimetric, 37 °C 6 h; triplicate; read-out: Minimal inhibitory concentration, Streptococcus uberis. How it is done: as §1, §2
A further experiment relates to Staphylococcus xylosus. Briefly: microbe, parasite or virus in culture. As to conditions: Staphylococcus xylosus, read-out: Minimal inhibitory concentration, Staphylococcus xylosus. How it is done:
as §1, §2

In experiment [1] the test system is Staphylococcus chromogenes. Briefly: microbe, parasite or virus in culture. As to conditions: Staphylococcus chromogenes, read-out: Minimal inhibitory concentration, Staphylococcus chromogenes. How it is done:
as §1, §2

Experiment [2] concerns Staphylococcus epidermidis. In words: microbe, parasite or virus in culture. The conditions noted are these: Staphylococcus epidermidis; field isolate from milk; WST colourimetric, 37 °C 6 h; triplicate; read-out: Minimal inhibitory concentration, Staphylococcus epidermidis. How it is done: as §1, §2
Another experiment concerns Corynebacterium simulans. Briefly: microbe, parasite or virus in culture. As to conditions: Corynebacterium simulans; field isolate from milk; BHI broth; WST colourimetric, 37 °C 6 h; triplicate; read-out: Minimal inhibitory concentration, Corynebacterium simulans. How it is done:
as §1, §2

The subject of experiment [3] is Glutamicibacter halophytocola. In words: microbe, parasite or virus in culture. As to conditions: Glutamicibacter halophytocola; field isolate from milk; BHI broth; WST colourimetric, 37 °C 6 h; triplicate; read-out: Minimal inhibitory concentration, Glutamicibacter halophytocola. How it is done:
as §1, §2

Experiment [4] has as its system Streptococcus equi subsp. zooepidemicus ATCC 43079. Briefly: microbe, parasite or virus in culture. As to conditions: Streptococcus equi, ATCC43079; ATCC 43079; BHI broth; WST colourimetric, 37 °C 6 h; triplicate; read-out: Minimal inhibitory concentration, Streptococcus equi subsp. zooepidemicus. Here is the method: (§3) The standard bacterial strains used for antimicrobial activity assays include Staphylococcus aureus ATCC (American Type Culture Collection, Manassas, VA, USA) 6538, Bacillus cereus ATCC 10876, Enterococcus faecalis ATCC 29212, Streptococcus […] 27956, Streptococcus dysgalactiae ATCC 27957, Streptococcus equi subsp. zooepidemicus ATCC 43079, Escherichia coli ATCC 25922, and Pseudomonas aeruginosa ATCC 27853. Most bacterial strains were cultured in LB medium except for E. faecalis and streptococci, which were cultivated in brain heart infusion (BHI) broth (BD Bioscience). […] Experiments were conducted in triplicate.

Experiment [5] concerns Streptococcus dysgalactiae ATCC 27957. Briefly: microbe, parasite or virus in culture. The conditions noted are these: Streptococcus dysgalactiae, ATCC27957; ATCC 27957; BHI broth; WST colourimetric, 37 °C 6 h; triplicate; read-out: Minimal inhibitory concentration, Streptococcus dysgalactiae. How it is done:
as §3

In experiment [6] the test system is Enterococcus faecalis ATCC 29212. In words: microbe, parasite or virus in culture. The conditions noted are these: Enterococcus faecalis, ATCC29212; ATCC 29212; BHI broth; WST colourimetric, 37 °C 6 h; triplicate; read-out: Minimal inhibitory concentration, Enterococcus faecalis. How it is done:
as §3

Experiment [7] deals with Staphylococcus aureus ATCC 6538. In words: microbe, parasite or virus in culture. As to conditions: Staphylococcus aureus, ATCC6538; ATCC 6538; MH broth; WST colourimetric, 37 °C 6 h; triplicate; read-out: Minimal inhibitory concentration, Staphylococcus aureus. Here is the method:
as §3

Experiment [8] relates to Streptococcus agalactiae ATCC 27956. Briefly: microbe, parasite or virus in culture. The conditions noted are these: Streptococcus agalactiae, ATCC27956; ATCC 27956; BHI broth; WST colourimetric, 37 °C 6 h; triplicate; read-out: Minimal inhibitory concentration, Streptococcus agalactiae. Here is the method:
as §3

In experiment [9] the test system is Pseudomonas aeruginosa ATCC 27853. In words: microbe, parasite or virus in culture. As to conditions: Pseudomonas aeruginosa, ATCC27853; ATCC 27853; CAMHB; WST colourimetric, 37 °C 6 h; triplicate; read-out: Minimal inhibitory concentration, Pseudomonas aeruginosa. Here is the method:
as §3

The subject of experiment [10] is Escherichia coli ATCC 25922. Briefly: microbe, parasite or virus in culture. As to conditions: Escherichia coli, ATCC25922, 8 h, MH broth, WST colourimetric, 1.5 × 10^5 cells/well, 37 °C 6 h + 2 h reagent, A450, triplicate, read-out: Minimal inhibitory concentration, Escherichia coli. How it is done:
as §3

Experiment [11] concerns Bacillus cereus ATCC 10876. In words: microbe, parasite or virus in culture. As to conditions: Bacillus cereus, ATCC10876; ATCC 10876; MH broth; WST colourimetric, 37 °C 6 h; triplicate; read-out: Minimal inhibitory concentration, Bacillus cereus. How it is done:
as §3

For experiment [12], the system named is Staphylococcus haemolyticus. Briefly: MIC against field isolate from milk with high SCC. As to conditions: Staphylococcus haemolyticus, read-out: Minimal inhibitory concentration, Staphylococcus haemolyticus. Here is the method:
as §1, §2

Setting [13] is: field isolate from milk, WST colourimetric, 37 °C 6 h, triplicate.
Where [14] appears, read: value in brackets, Additional file 6, field isolate.

Molecules are shown by their SMILES. In brackets after ≈: the same amount, converted by molar mass. Read-outs that look alike come from different tables or passages of the source. Bounds are passed on as bounds.

On to `CC1(C)S[C@@H]2[C@H](NC(=O)[C@H](N)c3ccccc3)C(=O)N2[C@H]1C(=O)O` [Ampicillin, reference compound], for which the MIC was over 240 µg/mL in the experiment with Aeromonas hydrophila; over 240 µg/mL in the experiment on Streptococcus uberis; 5 µg/mL in the experiment with Staphylococcus xylosus (setting [13]); 0.0143 µM with Staphylococcus xylosus (setting [14]); 5 µg/mL in experiment [1] (setting [13]); 0.0143 µM in [1] (setting [14]). For the same molecule, the MIC is 5 µg/mL (≈ 14.3 µM) in [2]; over 240 µg/mL in the experiment on Corynebacterium simulans; 15 µg/mL (≈ 42.9 µM) in [3]; 2 µg/mL (≈ 5.72 µM) in experiment [4]; 2 µg/mL (≈ 5.72 µM) in [5]; 10 µg/mL (≈ 28.6 µM) in experiment [6]. Further, the MIC is 2 µg/mL (≈ 5.72 µM) in [7]; 4 µg/mL (≈ 11.4 µM) in experiment [8]; over 640 µg/mL in experiment [9]; 5 µg/mL in [10]; 80 µg/mL (≈ 229 µM) in experiment [11]; 10 µg/mL in [12] (setting [13]). In addition, the MIC in experiment [12] (setting [14]) is 0.0286 µM.
In the case of `O=C(N[C@H](CO)[C@H](O)c1ccc([N+](=O)[O-])cc1)C(Cl)Cl` [Chloramphenicol, reference compound], the MIC in the experiment on Aeromonas hydrophila amounted to 5 µg/mL (≈ 15.5 µM); with Streptococcus uberis it was 50 µg/mL (≈ 155 µM); in the experiment on Staphylococcus xylosus (setting [13]), 8 µg/mL; in the experiment on Staphylococcus xylosus (setting [14]) it was 0.0248 µM; in experiment [1] (setting [13]), 18 µg/mL; in experiment [1] (setting [14]), 0.0558 µM. Moreover, the MIC in experiment [2] stood at 5 µg/mL (≈ 15.5 µM); in the experiment on Corynebacterium simulans it was 8 µg/mL (≈ 24.8 µM); in experiment [3], 3 µg/mL (≈ 9.28 µM); in [4], 5 µg/mL (≈ 15.5 µM); in [5] it was 4 µg/mL (≈ 12.4 µM); in [6], 10 µg/mL (≈ 30.9 µM). Besides, the MIC in experiment [7] was found to be 8 µg/mL (≈ 24.8 µM); in experiment [8], 5 µg/mL (≈ 15.5 µM); in experiment [9] it was 80 µg/mL (≈ 248 µM); in experiment [10], 3 µg/mL; in [11], 10 µg/mL (≈ 30.9 µM); in experiment [12] (setting [13]), 10 µg/mL. Further, in [12] (setting [14]), the MIC turned out to be 0.031 µM.
Turning to `CNC(C)C1CCC(N)C(OC2C(N)CC(N)C(OC3OCC(C)(O)C(NC)C3O)C2O)O1` (stereo not drawn) [Gentamicin, reference compound], the MIC stood at 4 µg/mL (≈ 8.38 µM) with Aeromonas hydrophila; 60 µg/mL (≈ 126 µM) with Streptococcus uberis; 1 µg/mL with Staphylococcus xylosus (setting [13]); 0.0021 µM in the experiment on Staphylococcus xylosus (setting [14]); 2 µg/mL in experiment [1] (setting [13]); 0.0042 µM in experiment [1] (setting [14]). The MIC came out at 4 µg/mL (≈ 8.38 µM) in experiment [2]; 10 µg/mL (≈ 20.9 µM) in the experiment with Corynebacterium simulans; 3 µg/mL (≈ 6.28 µM) in experiment [3]; 45 µg/mL (≈ 94.2 µM) in [4]; 15 µg/mL (≈ 31.4 µM) in experiment [5]; 90 µg/mL (≈ 188 µM) in experiment [6]. Further, the MIC in [7] worked out at 1 µg/mL (≈ 2.09 µM); in experiment [8], 75 µg/mL (≈ 157 µM); in experiment [9] it was 1 µg/mL (≈ 2.09 µM); in experiment [10], 1 µg/mL; in experiment [11] it was 1 µg/mL (≈ 2.09 µM); in [12] (setting [13]), 10 µg/mL. Also, the MIC in [12] (setting [14]) was 0.0209 µM.
